Structures can show the parent of a compound that is named as a salt.
How the values were obtained:
TNKS-1 = molecular target: T1, TNKS-1 (Homo sapiens, UniProt O95271); assay: TNKS1 Histone Ribosylation Colorimetric Assay Kit (tankyrase-1 colorimetric activity assay); type: biochemical; conditions: for inhibition at 10 µM: read-out: TNKS-1 inhibitory activity (10 μM), 10 μM compound
T1 construct: purchased BPS Bioscience 80582
T1 sequence (O95271 1-1327): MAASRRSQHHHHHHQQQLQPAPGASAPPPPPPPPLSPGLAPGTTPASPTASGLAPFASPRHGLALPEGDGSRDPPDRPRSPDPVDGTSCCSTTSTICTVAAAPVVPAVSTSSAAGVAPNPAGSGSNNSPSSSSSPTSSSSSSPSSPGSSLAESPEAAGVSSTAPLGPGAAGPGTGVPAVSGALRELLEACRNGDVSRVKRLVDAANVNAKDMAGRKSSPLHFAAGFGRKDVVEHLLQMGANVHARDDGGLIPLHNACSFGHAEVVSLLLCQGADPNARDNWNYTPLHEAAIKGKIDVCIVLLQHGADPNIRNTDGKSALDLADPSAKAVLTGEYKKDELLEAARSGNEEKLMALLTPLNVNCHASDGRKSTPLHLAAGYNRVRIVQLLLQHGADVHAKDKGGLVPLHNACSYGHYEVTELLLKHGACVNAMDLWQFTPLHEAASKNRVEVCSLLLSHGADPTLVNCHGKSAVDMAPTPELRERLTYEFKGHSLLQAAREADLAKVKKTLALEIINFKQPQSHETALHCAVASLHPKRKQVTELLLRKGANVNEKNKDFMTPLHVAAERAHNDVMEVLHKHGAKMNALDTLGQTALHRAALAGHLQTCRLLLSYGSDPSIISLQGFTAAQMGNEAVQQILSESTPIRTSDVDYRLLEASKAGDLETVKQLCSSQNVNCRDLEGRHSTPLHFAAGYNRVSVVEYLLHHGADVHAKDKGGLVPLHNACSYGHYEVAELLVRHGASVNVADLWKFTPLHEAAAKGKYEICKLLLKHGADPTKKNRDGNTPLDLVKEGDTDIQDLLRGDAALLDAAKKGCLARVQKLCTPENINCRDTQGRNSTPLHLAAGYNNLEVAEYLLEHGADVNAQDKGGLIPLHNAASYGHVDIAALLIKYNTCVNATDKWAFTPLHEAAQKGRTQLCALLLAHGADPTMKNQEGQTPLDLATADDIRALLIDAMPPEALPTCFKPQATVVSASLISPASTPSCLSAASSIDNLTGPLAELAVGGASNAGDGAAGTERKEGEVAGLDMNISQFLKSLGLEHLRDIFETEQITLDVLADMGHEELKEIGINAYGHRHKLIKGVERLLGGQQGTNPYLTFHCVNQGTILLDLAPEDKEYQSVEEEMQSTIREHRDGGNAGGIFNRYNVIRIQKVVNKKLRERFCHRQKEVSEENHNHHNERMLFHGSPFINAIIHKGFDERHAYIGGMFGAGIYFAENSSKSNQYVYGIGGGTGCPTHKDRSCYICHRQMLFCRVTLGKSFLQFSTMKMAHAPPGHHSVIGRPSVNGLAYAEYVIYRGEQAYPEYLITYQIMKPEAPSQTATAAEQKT

TNKS-2 = molecular target: T2, TNKS-2 (Homo sapiens, UniProt Q9H2K2); assay: TNKS-2 enzymatic activity inhibition; type: biochemical
T2 sequence (Q9H2K2 1-1166): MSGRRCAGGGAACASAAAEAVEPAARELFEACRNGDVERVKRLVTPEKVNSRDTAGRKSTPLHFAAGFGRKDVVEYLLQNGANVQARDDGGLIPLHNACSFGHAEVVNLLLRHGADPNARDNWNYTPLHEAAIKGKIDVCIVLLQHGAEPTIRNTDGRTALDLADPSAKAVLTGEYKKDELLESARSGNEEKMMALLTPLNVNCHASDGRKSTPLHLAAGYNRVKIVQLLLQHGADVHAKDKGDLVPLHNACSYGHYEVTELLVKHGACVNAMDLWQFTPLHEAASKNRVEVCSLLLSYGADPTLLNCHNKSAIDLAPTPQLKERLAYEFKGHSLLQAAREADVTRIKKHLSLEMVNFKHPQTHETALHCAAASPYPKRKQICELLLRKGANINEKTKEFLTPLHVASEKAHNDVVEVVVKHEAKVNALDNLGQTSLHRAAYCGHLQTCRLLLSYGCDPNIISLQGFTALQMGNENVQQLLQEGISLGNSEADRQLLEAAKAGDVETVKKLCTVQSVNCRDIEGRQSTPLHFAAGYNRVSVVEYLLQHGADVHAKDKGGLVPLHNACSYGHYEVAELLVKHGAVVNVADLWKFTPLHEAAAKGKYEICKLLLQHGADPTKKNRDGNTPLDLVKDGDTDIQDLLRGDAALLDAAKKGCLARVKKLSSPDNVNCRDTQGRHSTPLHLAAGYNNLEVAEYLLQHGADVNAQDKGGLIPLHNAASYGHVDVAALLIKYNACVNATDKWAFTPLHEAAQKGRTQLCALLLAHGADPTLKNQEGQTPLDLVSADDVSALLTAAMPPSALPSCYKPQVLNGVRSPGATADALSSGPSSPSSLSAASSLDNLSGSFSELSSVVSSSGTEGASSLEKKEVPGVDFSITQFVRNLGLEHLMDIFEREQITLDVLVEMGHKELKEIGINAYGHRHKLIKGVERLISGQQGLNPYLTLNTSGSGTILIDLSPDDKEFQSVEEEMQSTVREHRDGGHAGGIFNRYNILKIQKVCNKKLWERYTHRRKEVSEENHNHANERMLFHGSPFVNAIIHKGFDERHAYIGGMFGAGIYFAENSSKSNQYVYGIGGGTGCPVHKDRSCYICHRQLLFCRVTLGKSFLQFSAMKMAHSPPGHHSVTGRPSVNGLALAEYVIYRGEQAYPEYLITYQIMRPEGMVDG

PARP-1 = molecular target: T3, PARP-1 (Homo sapiens, UniProt P09874); assay: PARP-1 colorimetric activity assay kit; type: biochemical; conditions: for inhibition of enzymatic activity of PARP-1 (in words): 1 μM
T3 construct: purchased BPS Bioscience 80580
T3 sequence (P09874 whole entry): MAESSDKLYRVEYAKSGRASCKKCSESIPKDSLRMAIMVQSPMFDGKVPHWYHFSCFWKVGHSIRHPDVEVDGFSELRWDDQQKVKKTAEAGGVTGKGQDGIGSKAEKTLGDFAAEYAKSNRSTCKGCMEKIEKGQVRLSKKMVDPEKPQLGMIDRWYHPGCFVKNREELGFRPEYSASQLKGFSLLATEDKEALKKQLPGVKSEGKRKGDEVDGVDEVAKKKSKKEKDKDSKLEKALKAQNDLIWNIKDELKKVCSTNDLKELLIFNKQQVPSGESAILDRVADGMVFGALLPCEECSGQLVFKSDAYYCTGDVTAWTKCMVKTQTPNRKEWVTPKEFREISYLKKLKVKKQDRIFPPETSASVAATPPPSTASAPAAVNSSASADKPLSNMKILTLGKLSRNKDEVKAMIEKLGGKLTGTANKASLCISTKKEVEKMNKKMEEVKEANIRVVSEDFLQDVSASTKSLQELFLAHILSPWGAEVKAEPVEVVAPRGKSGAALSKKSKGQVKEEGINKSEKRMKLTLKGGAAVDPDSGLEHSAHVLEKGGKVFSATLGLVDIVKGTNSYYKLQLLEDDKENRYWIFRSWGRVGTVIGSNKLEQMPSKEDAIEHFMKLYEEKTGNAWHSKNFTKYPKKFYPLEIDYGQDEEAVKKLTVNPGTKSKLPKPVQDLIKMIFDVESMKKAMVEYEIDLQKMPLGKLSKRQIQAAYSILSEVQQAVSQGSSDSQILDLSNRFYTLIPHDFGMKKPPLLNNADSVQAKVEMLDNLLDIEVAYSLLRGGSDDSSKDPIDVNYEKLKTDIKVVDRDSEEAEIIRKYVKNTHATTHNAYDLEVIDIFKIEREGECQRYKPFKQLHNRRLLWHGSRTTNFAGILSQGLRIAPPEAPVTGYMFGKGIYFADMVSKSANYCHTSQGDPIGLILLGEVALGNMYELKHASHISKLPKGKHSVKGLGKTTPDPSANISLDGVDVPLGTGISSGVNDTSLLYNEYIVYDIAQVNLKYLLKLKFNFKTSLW

PARP-2 = PARP-2 (Homo sapiens, UniProt Q9UGN5); assay: PARP-2 enzymatic activity inhibition; type: biochemical
PARP-2, sequence (Q9UGN5 whole entry): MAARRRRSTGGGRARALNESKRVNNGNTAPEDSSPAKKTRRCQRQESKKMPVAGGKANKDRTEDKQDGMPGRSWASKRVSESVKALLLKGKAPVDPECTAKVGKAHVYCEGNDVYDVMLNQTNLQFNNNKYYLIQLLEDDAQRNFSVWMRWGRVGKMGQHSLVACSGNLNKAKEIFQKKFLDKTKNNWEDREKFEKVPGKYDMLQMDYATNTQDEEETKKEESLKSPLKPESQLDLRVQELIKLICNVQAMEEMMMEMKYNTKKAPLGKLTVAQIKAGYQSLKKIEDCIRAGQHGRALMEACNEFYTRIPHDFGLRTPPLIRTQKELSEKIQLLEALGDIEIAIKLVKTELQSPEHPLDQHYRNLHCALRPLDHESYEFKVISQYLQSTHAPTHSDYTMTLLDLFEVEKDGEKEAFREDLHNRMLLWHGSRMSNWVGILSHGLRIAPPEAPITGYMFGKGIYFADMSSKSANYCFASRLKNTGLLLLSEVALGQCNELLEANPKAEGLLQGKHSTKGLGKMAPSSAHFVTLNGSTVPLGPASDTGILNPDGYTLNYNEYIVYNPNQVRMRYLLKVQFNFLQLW

[1] = test system: beta-catenin transcriptional activity; assay: TCF/luciferase assay of beta-catenin transcriptional activity in HEK cells; type: cell-based; conditions: Homo sapiens, HEK293, read-out: β-catenin IC50 in HEK cells
Protocol: To determine whether beta-catenin transcriptional activity is inhibited by the aryl-piperidine derivative compounds, compounds TI-61815 and TI-61910 were treated at various concentrations and examined in HEK cells using the TCF/luciferase assay system.

[2] = test system: activated beta-catenin proteins; assay: Western blotting of activated beta-catenin protein in colon cancer cell lines; type: cell-based, human; conditions: COLO320DM and SW403, 10 μM, 24 hours
From the text: (§1) After protein extraction, proteins were quantified through Western blotting (Bio-Rad, USA).

AXIN2 protein = assay: Western blotting of AXIN2 protein in colon cancer cell lines; type: cell-based, human; conditions: COLO320DM and SW403, 10 μM, 24 hours
From the text: as §1

[3] = test system: beta-catenin subgenes (AXIN2, CCND1, cMYC, FGF20); assay: Real-time PCR of beta-catenin subgene expression; type: cell-based, human; conditions: COLO320DM, 10 μM, 24 hours
From the text: After RNA extraction, cDNA was synthesized to quantify gene expression via real-time PCR.

[4] = test system: colon cancer cell line COLO320DM; assay: Cell viability by colony counting after co-treatment with 5-FU; type: cell-based; conditions: Homo sapiens, COLO 320DM, 240 h, 10 days, read-out: cell viability inhibited when co-treated with 5-FU, compared to the sole treatment; for cytotoxicity at 5 µM: 5 μM compound + 0.5 μM 5-FU; for cytotoxicity at 10 µM: 10 μM compound + 0.5 μM 5-FU
Protocol: Each cell line was purchased from the American Type Culture Collection (ATCC) and cultured respectively in RPMI 1640 (Roswell Park Memorial Institute 1640) medium supplemented with 10% fetal bovine serum (FBS), 100 μg/ml streptomycin, and 100 units/ml penicillin in the presence of 5% CO2 at 37° C.
Afterwards, the cell viability was identified by counting the number of colonies by staining with 1.5% methylene blue.

[5] = test system: colon cancer cell line COLO320DM; assay: Cell viability by colony counting (methylene blue staining); conditions: 10 days; for cell viability (in words): 2.5 μM to 40 μM; for cell viability inhibited: 40 μM

N#Cc1ccccc1N1CCC(CC(=O)Nc2nnc3ccccn23)CC1 [TI-61815, N-([1,2,4]triazolo[4,3-a]pyridin-3-yl)-2-(1-(2-cyanophenyl)piperidin-4-yl)acetamide]
IC50 (TNKS-1): 64 nM | inhibition at 10 µM (TNKS-1): ≥ 95% | IC50 (TNKS-2): 49 nM | IC50 (PARP-1): 7540 nM | inhibition of enzymatic activity of PARP-1 (in words) (PARP-1): almost no decrease in the inhibition of enzymatic activity of PARP-1 | IC50 (PARP-2): 6060 nM | IC50 [1]: 830 nM | levels of the activated beta-catenin proteins [2]: inhibited levels of the activated beta-catenin proteins | AXIN2 protein levels (AXIN2 protein): stabilization of AXIN2 protein levels | expression levels of beta-catenin subgenes (AXIN2, CCND1, cMYC, FGF20) [3]: inhibited the expression levels of beta-catenin subgenes | cytotoxicity at 5 µM [4]: 12.4% | cytotoxicity at 10 µM [4]: 27.8% | cell viability (in words) [5]: decreased in a concentration-dependent manner | cell viability inhibited [5]: 61.4%

N#Cc1ccccc1N1CCC(CC(=O)Nc2cnc3cccnn23)CC1 [TI-61816, 2-(1-(2-cyanophenyl)piperidin-4-yl)-N-(imidazo[1,2-b]pyridazin-3-yl)acetamide]
inhibition at 10 µM (TNKS-1): 5 ± 1.2%

N#Cc1ccccc1N1CCC(CCC(=O)Nc2nnc3ccccn23)CC1 [TI-61910, N-([1,2,4]triazolo[4,3-a]pyridin-3-yl)-3-(1-(2-cyanophenyl)piperidin-4-yl)propanamide]
IC50 (TNKS-1): 18 nM | inhibition at 10 µM (TNKS-1): ≥ 95% | IC50 (TNKS-2): 4 nM | IC50 (PARP-1): > 10000 nM | inhibition of enzymatic activity of PARP-1 (in words) (PARP-1): almost no decrease in the inhibition of enzymatic activity of PARP-1 | IC50 (PARP-2): > 10000 nM | IC50 [1]: 490 nM | levels of the activated beta-catenin proteins [2]: inhibited levels of the activated beta-catenin proteins | AXIN2 protein levels (AXIN2 protein): stabilization of AXIN2 protein levels | expression levels of beta-catenin subgenes (AXIN2, CCND1, cMYC, FGF20) [3]: inhibited the expression levels of beta-catenin subgenes | cytotoxicity at 2.5 µM ([4]; 2.5 μM compound + 0.5 μM 5-FU): 26% | cytotoxicity at 5 µM [4]: 28.3% | cytotoxicity at 10 µM [4]: 35.5% | cell viability (in words) [5]: decreased in a concentration-dependent manner | cell viability inhibited [5]: 60.8%

N#Cc1ccccc1N1CCC(CCCC(=O)Nc2nnc3ccccn23)CC1 [TI-62116, N-([1,2,4]triazolo[4,3-a]pyridin-3-yl)-4-(1-(2-cyanophenyl)piperidin-4-yl)butanamide]
inhibition at 10 µM (TNKS-1): 99 ± 0.1%

N#Cc1ccccc1N1CCC(CCC(=O)Nc2cnc3cccnn23)CC1 [TI-62121, 3-(1-(2-cyanophenyl)piperidin-4-yl)-N-(imidazo[1,2-b]pyridazin-3-yl)propanamide]
inhibition at 10 µM (TNKS-1): 17 ± 1.5%

N#Cc1ccccc1N1CCC(CCC(=O)Nc2cnc3ccccn23)CC1 [TI-62122, 3-(1-(2-cyanophenyl)piperidin-4-yl)-N-(imidazo[1,2-a]pyridin-3-yl)propanamid]
inhibition at 10 µM (TNKS-1): 10 ± 0.9%

N#Cc1ccccc1N1CCC(CCC(=O)Nc2cccc3[nH]ccc23)CC1 [TI-62126]
inhibition at 10 µM (TNKS-1): 1 ± 1.7%

O=C(CCC1CCN(c2ccccc2[N+](=O)[O-])CC1)Nc1nnc2ccccn12 [TI-62188, N-([1,2,4]triazolo[4,3-a]pyridin-3-yl)-3-(1-(2-nitrophenyl)piperidin-4-yl)propanamide]
inhibition at 10 µM (TNKS-1): ≥ 95%

O=C(CCC1CCN(c2cccc([N+](=O)[O-])c2)CC1)Nc1nnc2ccccn12 [TI-62189]
inhibition at 10 µM (TNKS-1): 100%

O=C(CCC1CCN(c2ccc([N+](=O)[O-])cc2)CC1)Nc1nnc2ccccn12 [TI-62190]
inhibition at 10 µM (TNKS-1): 96 ± 0.2%

N#Cc1ccc(N2CCC(CCC(=O)Nc3nnc4ccccn34)CC2)cc1 [TI-62194]
inhibition at 10 µM (TNKS-1): 100%

O=C(CCC1CCN(c2ccc([N+](=O)[O-])cc2[N+](=O)[O-])CC1)Nc1nnc2ccccn12 [TI-62195]
inhibition at 10 µM (TNKS-1): ≥ 95%

CC(C)(C)OC(=O)N(CC(=O)Nc1nnc2ccccn12)C1CCN(c2ccccc2C#N)CC1 [TI-62197, tert-Butyl(2-([1,2,4]triazolo[4,3-a]pyridin-3-ylamino)-2-oxoethyl)(1-(2-cyanophenyl)piperidin-4-yl) carbamate]
inhibition at 10 µM (TNKS-1): 3 ± 0.9%

N#Cc1ccccc1N1CCC(NCC(=O)Nc2nnc3ccccn23)CC1 [TI-62198, N-([1,2,4]triazolo[4,3-a]pyridin-3-yl)-2-((1-(2-cyanophenyl)piperidin-4-yl)amino)acetamide trifluoroacetic acid salt]
inhibition at 10 µM (TNKS-1): 72 ± 0.3%

CN(CC(=O)Nc1nnc2ccccn12)C1CCN(c2ccccc2C#N)CC1 [TI-62199, N-([1,2,4]triazolo[4,3-a]pyridin-3-yl)-2-((1-(2-cyanophenyl)piperidin-4-yl)(methyl)amino)acetamide]
inhibition at 10 µM (TNKS-1): 98 ± 0.1%
